Results published in ChEMBL document CHEMBL5104135, “Potent and selective TYK2-JH1 inhibitors highly efficacious in rodent model of psoriasis” (Bioorg Med Chem Lett, 2022).
Values after ≈ are worked out from the molar mass of the structure shown.

Legend:
[1] = species: Homo sapiens; assay: Ratio Ki for inhibition of JAK1 (unknown origin) over TYK2 JH1 domain (unknown origin)
[2] = species: Homo sapiens; assay: Ratio Ki for inhibition of JAK2 (unknown origin) over TYK2 JH1 domain (unknown origin)
[3] = species: Homo sapiens; assay: Ratio Ki for inhibition of JAK3 (unknown origin) over TYK2 JH1 domain (unknown origin)
[4] = Kinetic solubility of compound at pH 7.4; conditions: buffer
[5] = Efflux ratio of apparent permeability in human Caco-2 cells
[6] = Thermodynamic solubility in fasted simulated intestinal fluid; type: physicochemical; conditions: read-out: Therm_solubility
[7] = Thermodynamic solubility in simulated gastric fluid; type: physicochemical; conditions: read-out: Therm_solubility
[8] = Plasma protein binding in human assessed as unbound fraction
[9] = Plasma protein binding in mouse assessed as unbound fraction
[10] = system: Blood; assay: Inhibition of IL-12- induced IFN-gamma production in human whole blood; type: functional, tissue-based; conditions: for IC50: Homo sapiens, Blood
[11] = system: Blood; assay: Inhibition of IL-12- induced IFN-gamma production in mouse whole blood; type: functional, tissue-based; conditions: for IC50: Mus musculus, Blood
[12] = target: Non-receptor tyrosine-protein kinase TYK2 (Homo sapiens, UniProt P29597)
Non-receptor tyrosine-protein kinase TYK2, sequence (P29597 whole entry): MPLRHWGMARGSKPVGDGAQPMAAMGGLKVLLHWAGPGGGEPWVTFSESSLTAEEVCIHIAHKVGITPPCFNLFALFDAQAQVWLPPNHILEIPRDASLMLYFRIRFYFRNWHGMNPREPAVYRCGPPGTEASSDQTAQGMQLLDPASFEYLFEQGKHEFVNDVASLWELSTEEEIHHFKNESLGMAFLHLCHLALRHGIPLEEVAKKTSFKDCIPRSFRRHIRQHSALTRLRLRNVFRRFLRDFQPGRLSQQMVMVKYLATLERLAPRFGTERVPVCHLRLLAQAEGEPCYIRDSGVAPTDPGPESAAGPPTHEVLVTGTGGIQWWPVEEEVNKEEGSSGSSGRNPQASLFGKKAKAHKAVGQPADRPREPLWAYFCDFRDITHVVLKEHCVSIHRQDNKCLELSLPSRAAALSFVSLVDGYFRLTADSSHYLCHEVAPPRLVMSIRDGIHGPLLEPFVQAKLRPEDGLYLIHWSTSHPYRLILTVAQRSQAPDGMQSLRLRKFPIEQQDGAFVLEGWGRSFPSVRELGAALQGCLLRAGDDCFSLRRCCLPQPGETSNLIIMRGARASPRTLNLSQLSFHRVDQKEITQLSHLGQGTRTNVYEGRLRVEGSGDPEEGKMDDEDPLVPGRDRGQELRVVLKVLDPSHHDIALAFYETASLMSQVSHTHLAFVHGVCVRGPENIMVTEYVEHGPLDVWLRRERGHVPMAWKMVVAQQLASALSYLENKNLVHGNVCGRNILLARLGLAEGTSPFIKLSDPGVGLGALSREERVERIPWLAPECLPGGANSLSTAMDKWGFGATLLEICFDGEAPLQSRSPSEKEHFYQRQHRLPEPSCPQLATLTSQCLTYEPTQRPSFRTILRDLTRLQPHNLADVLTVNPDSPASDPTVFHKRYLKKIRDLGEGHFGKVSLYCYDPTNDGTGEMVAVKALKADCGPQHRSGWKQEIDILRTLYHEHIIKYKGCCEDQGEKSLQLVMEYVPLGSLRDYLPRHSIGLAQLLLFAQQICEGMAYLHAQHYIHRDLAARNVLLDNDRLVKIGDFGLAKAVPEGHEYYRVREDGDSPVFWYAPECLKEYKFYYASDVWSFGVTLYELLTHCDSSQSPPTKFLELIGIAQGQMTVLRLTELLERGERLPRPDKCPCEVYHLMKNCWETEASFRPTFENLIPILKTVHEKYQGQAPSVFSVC
Description: Inhibition of TYK2 JH1 domain (unknown origin) measured in presence of 10 uM ATP

| SMILES | Ratio Ki [1] | Ratio Ki [2] | Ratio Ki [3] | efflux ratio [5] | also measured |
| --- | --- | --- | --- | --- | --- |
| O=C1NCc2nc(-c3c(F)cccc3F)cc(Nc3ccc(N4CCC(O)CC4)cn3)c21 | 160 | 120 | 25 | 1.5 | solubility kinetic [4]: 65 µM (≈ 28.4 µg/mL) |
| O=C1NCc2nc(-c3c(F)cccc3F)nc(Nc3ccc(CC(=O)N4CCN(CC(F)F)CC4)cc3)c21 | 31 | 24 | 2.3 | – | – |
| CCNC(=O)c1ccc(Nc2cc(-c3c(F)cccc3F)nc3c2C(=O)NC3)nc1 | 84 | 170 | 24 | 7.2 | solubility kinetic [4]: 3.1 µM (≈ 1.27 µg/mL); solubility thermodynamic [6]: 15 µM (≈ 6.14 µg/mL); solubility thermodynamic [7]: 255 µM (≈ 104 µg/mL); fraction unbound [8]: 0.17; fraction unbound [9]: 0.16; fIC50 [10]: 0.27 µM; IC50 [10]: 1600 nM; fIC50 [11]: 0.19 µM; IC50 [11]: 1200 nM |
| CCNC(=O)Cc1ccc(Nc2cc(-c3c(F)cccc3F)nc3c2C(=O)NC3)nc1 | 39 | 72 | 5.7 | 9.6 | solubility kinetic [4]: 0.6 µM (≈ 0.254 µg/mL) |
| O=C1NCc2nc(-c3c(F)cccc3F)cc(Nc3ccc(N4CCOCC4)cn3)c21 | 160 | 120 | 25 | 0.58 | solubility kinetic [4]: 12 µM (≈ 5.08 µg/mL) |
| CCNC(=O)c1ccc(Nc2cc(-c3c(F)cccc3Cl)nc3c2C(=O)NC3)nc1 | 7.3 | 12 | 1.8 | – | – |
| O=C1NCc2nc(-c3c(F)cccc3F)cc(Nc3ccc(N4CCC(F)(F)CC4)cn3)c21 | 400 | 370 | 32 | 0.68 | solubility kinetic [4]: 2.4 µM (≈ 1.1 µg/mL) |
| O=C1NCc2nc(-c3c(F)cccc3F)nc(Nc3ccc(C4CCCNC4=O)cc3)c21 (stereo in doubt; 15b) [listing 1 of 2 here] | 130 | 84 | 10 | – | – |
| O=C1NCc2nc(-c3c(F)cccc3F)nc(Nc3ccc(C4CCNC4=O)cc3)c21 (stereo in doubt; 14b) [listing 1 of 2 here] | – | – | – | – | Ki [12]: 1.1 nM |
| O=C1NCc2nc(-c3c(F)cccc3F)nc(Nc3ccc(C4CCNC4=O)cc3)c21 (stereo in doubt; 14b) [listing 2 of 2 here] | 55 | 96 | 15 | – | – |
| CC(C)c1nc(Nc2ccc(C(=O)O)cc2)c2c(=O)[nH]ccc2n1 | 5.3 | 2.5 | 1.3 | – | – |
| CCNC(=O)C(C)(O)c1ccc(Nc2nc(-c3c(F)cccc3F)nc3c2C(=O)NC3)cc1 (stereo in doubt; 13b) [listing 1 of 2 here] | – | – | – | – | Ki [12]: 3.4 nM |
| NC(=O)c1ccc(NC(=O)c2ccc[nH]c2=O)cc1 | 1.4 | 1.1 | 2.3 | – | – |
| O=C1NCc2nc(-c3c(F)cccc3F)cc(Nc3ccc(C(=O)N4CCCC4)cn3)c21 | 53 | 23 | 3.3 | – | – |
| O=C1NCc2nc(-c3c(F)cccc3F)cc(Nc3ccc(C(=O)N4CCOCC4)cc3)c21 | 92 | 35 | 8.6 | 9.1 | solubility kinetic [4]: 170 µM (≈ 76.6 µg/mL); solubility thermodynamic [6]: 148 µM (≈ 66.7 µg/mL); fraction unbound [8]: 0.25; fraction unbound [9]: 0.24; fIC50 [10]: 0.16 µM; IC50 [10]: 620 nM; fIC50 [11]: 0.86 µM; IC50 [11]: 3600 nM |
| O=C1NCc2nc(-c3c(F)cccc3F)cc(Nc3ccc(N4CCOCC4=O)cn3)c21 | 80 | 77 | 13 | 7.8 | solubility kinetic [4]: 8.9 µM (≈ 3.89 µg/mL); solubility thermodynamic [6]: 24 µM (≈ 10.5 µg/mL); solubility thermodynamic [7]: 418 µM (≈ 183 µg/mL) |
| O=C1NCc2nc(-c3c(F)cccc3F)cc(Nc3ccc(C(=O)N4CCOCC4)cn3)c21 | 16 | 18 | 2.3 | – | – |
| O=C1NCc2nc(-c3c(F)cccc3F)nc(Nc3ccc(C4CCCNC4=O)cc3)c21 (stereo in doubt; 15a) | 77 | 83 | 19 | – | – |
| CN1CCN(C(=O)Cc2ccc(Nc3nc(-c4c(F)cccc4F)nc4c3C(=O)NC4)cc2)CC1 | 89 | 52 | 10 | – | – |
| O=C1NCc2nc(-c3c(F)cccc3F)nc(Nc3ccc(C4CCCNC4=O)cc3)c21 (stereo in doubt; 15b) [listing 2 of 2 here] | – | – | – | – | Ki [12]: 3.9 nM |
| CCNC(=O)c1ccc(Nc2cc(-c3c(F)cccc3C#N)nc3c2C(=O)NC3)nc1 | 6.5 | 15 | 69 | – | – |
| N#Cc1cccc(F)c1-c1cc(Nc2ccc(N3CCOCC3)cn2)c2c(n1)CNC2=O | 27 | 26 | 170 | – | – |
| O=C1NCc2nc(-c3c(F)cccc3F)cc(Nc3ccc(C(=O)N4CC[C@H](O)C4)cc3)c21 | 110 | 110 | 14 | 60 | solubility kinetic [4]: 290 µM (≈ 131 µg/mL) |

Further lines, with some results ahead:

| Ratio Ki [1] | Ratio Ki [2] | Ratio Ki [3] | efflux ratio [5] | SMILES | also measured |
| --- | --- | --- | --- | --- | --- |
| 7.8 | 74 | 95 | – | NC(=O)c1cnc(-c2c(F)cccc2F)nc1Nc1ccc(CC(=O)O)cc1 | – |
| – | – | – | 32 | CCNC(=O)C(C)(O)c1ccc(Nc2nc(-c3c(F)cccc3F)nc3c2C(=O)NC3)cc1 (stereo in doubt; 13a) [listing 1 of 2 here] | – |
| 59 | 47 | 8.8 | – | O=C1NCc2nc(-c3c(F)cccc3F)nc(Nc3ccc(CC(=O)N4CCOCC4)cc3)c21 | – |
| 87 | 300 | 43 | – | CCNC(=O)C(C)(O)c1ccc(Nc2nc(-c3c(F)cccc3F)nc3c2C(=O)NC3)cc1 (stereo in doubt; 13a) [listing 2 of 2 here] | – |
| 25 | 240 | 11 | – | COc1ccc(Nc2nc(-c3c(F)cccc3F)nc3c2C(=O)NC3)cc1 | – |
| 37 | 35 | 4 | – | O=C1NCc2nc(-c3c(F)cccc3F)nc(Nc3ccc(C4CCNC4=O)cc3)c21 (stereo in doubt; 14a) | – |
| 27 | 123 | 13 | – | CCNC(=O)C(C)(O)c1ccc(Nc2nc(-c3c(F)cccc3F)nc3c2C(=O)NC3)cc1 (stereo in doubt; 13b) [listing 2 of 2 here] | – |
| 17 | 30 | 4.6 | 6.4 | CCNC(=O)Cc1ccc(Nc2nc(-c3c(F)cccc3F)nc3c2C(=O)NC3)cc1 | solubility kinetic [4]: 1.2 µM (≈ 0.508 µg/mL) |
